From patent publication US8822549B2, “Buffered oxygen therapeutic” (priority 2011, dated 2014)

What was measured:
[1] = tested on: hypoxic tumors; conditions: administered systemically, oxygen via inhalation; published studies; cited from earlier work
[2] = tested on: hypoxic tumors; assay: Published studies: fluorocarbons as O2 delivery agents to sensitize hypoxic tumors to radiation therapy; type: in vivo; conditions: versus the liquid fluorocarbons fluosol and perfluoroctylbromide
Experimental: In these studies, fluorocarbons were administered systemically and oxygen was administered via inhalation to sensitize hypoxic tumors to radiation therapy. PFOB was effective at less than 1/100th the dose of the liquid fluorocarbons fluosol and […].

Structure (SMILES): FC(F)(F)C(F)(F)C(F)(F)C(F)(F)C(F)(F)C(F)(F)C(F)(F)C(F)(F)Br [PFOB, perfluoroctylbromide]
- Volume (dose as O2 delivery agent) [1]: 0.002 to 0.015 L/kg
- g/kg (fluorocarbon dose as O2 delivery agent) [1]: 2 to 15 g/kg
- effective dose as a fraction of the dose of liquid fluorocarbons [2]: less than 1/100
